Literature values in patent publication US20020132846A1, “Use of gamma substituted gamma-butyrolactones to increase levels of their corresponding substituted gamma-hydroxybutyrate derivatives in humans” (priority 2001, published 2002).

Tests used:
lactonase = conditions: oral ingestion, lactonase catalyzed hydrolysis; reference (7)
[1] = used according to prescribed dosing levels and schedules

For `CC(O)CCC(=O)O` (stereo not shown) [4-methyl substituted gamma-hydroxybutyrate], the “affinity for the GHB receptor” value (GHB receptor; compared with gamma-hydroxybutyrate itself) is given as “greater affinity than gamma-hydroxybutyrate itself” and the “more potent at the receptor than gamma-hydroxybutyrate itself” value (GHB receptor; relative to gamma-hydroxybutyrate, reference (8)) is given as 15%.

For `O=C1CCCO1` [gamma-butyrolactone], the “formation of the parent compound gamma-hydroxybutyrate” value (lactonase) is listed as “rapidly forms the parent compound”.

In the case of `O=C(O)CCCO` [gamma-hydroxybutyrate], the “physical or psychological addiction” value [1] is given as “no reports of physical or psychological addiction”.
